Measurements from patent US6034086A, “Trifluoromethylquinolinecarboxylic acid derivative” (priority 1994, dated 2000).
In brackets after ≈: the same amount, converted by molar mass. Read-outs that look alike come from different tables or passages of the source.

Experiments:
HIV [1] = experiment: cellular disorder-suppressing activity (anti-HIV activity) in HIV-infected MT-4 cells, MTT, method of R. Pauwel et al.; format: cell-based; conditions: for EC50: Human immunodeficiency virus 1, MT4, 120 h, HIV-infected MT-4 cells, 37° C., 5 days, 5% carbon dioxide, MTT, read-out: EC50 (50% cellular disorder-suppressing activity against the HIV-infected cells)
Experimental: That is, MT-4 cells were centrifuged (1000×g, 5 minutes), and a cell-floating solution in which the resulting cellular sediments were suspended in a RPMI-1640 medium containing no serum was inoculated with HIV. The mixture was cultured at 37° C. for 1 hour and then added to a RPMI-1640 medium to which 10% bovine fetal serum was added (hereinafter referred to as the serum medium), and the mixture was washed and centrifuged (1000×g, 5 minutes). The HIV-infected cells thus obtained and HIV-non-infected cells were suspended in the serum media in an amount of 4×10^5 /ml, respectively, and each 100 μl of the suspensions were apportioned to the respective wells of a multiwell with 96 wells for tissue culture. Each 100 μl of the compounds which had been previously diluted with the serum medium stepwisely were apportioned to these respective wells, and then the mixtures were left to stand and cultured at 37° C. for 5 days in the presence of 5% carbon dioxide. In the same manner, the HIV-infected cells and the HIV-non-infected cells to which the compound was not added were cultured. […] It was confirmed that no mycoplasma was contained in the cell solution and the virus-inoculated solution.
The cellular disorder-suppressing activity against the HIV-non-infected cells to which the compound was not added was defined as 100%, and the cellular disorder-suppressing activity against the HIV-infected cells to which the compound was not added was defined as 0%.

HIV [2] = conditions: AIDS 4, 1283 (1990) for DR-3355; WO 90/13542 for the others; cited from earlier work
[3] = method of R. Pauwel et al., statement in background section

Row | EC50 (HIV [1]) [µg/mL] | Compound | cellular disorder-suppressing activity to HIV-infected cells (anti-HIV activity), in words (HIV [1]; [3]) | anti-HIV activity reported in literature, in words (HIV [2]) | cellular disorder-suppressing activity to HIV-infected cells (anti-HIV activity), in words (HIV [1])
1 | – | NC1CCN(c2nc3c(cc2F)c(=O)c(C(=O)O)cn3-c2ccc(F)cc2F)C1 (centres unmarked) [Tosufloxacin] | no anti-HIV activity was also recognized | anti-HIV activities | –
2 | – | CCn1cc(C(=O)O)c(=O)c2cc(F)c(N3CCNCC3)cc21 [Norfloxacin] | no anti-HIV activity was also recognized | anti-HIV activities | –
3 | 0.01 (≈ 0.0215 µM) | CCn1cc(C(=O)O)c(=O)c2cc(F)c(N3CCN(c4ccccn4)CC3)c(C(F)(F)F)c21 [Example 11, 1-ethyl-6-fluoro-8-trifluoromethyl-1,4-dihydro-4-oxo-7-[4-(2-pyridyl)piperazin-1-yl]quinoline-3-carboxylic acid] | – | – | –
4 | 0.005 (≈ 0.0111 µM) | Cn1cc(C(=O)O)c(=O)c2cc(F)c(N3CCN(c4ccccn4)CC3)c(C(F)(F)F)c21 [Example 9, 6-fluoro-8-trifluoromethyl-1,4-dihydro-4-oxo-1-methyl-7-[4-(2-pyridyl)piperazin-1-yl]quinoline-3-carboxylic acid] | – | – | –
5 | 0.02 (≈ 0.042 µM) | O=C(O)c1cn(C2CC2)c2c(C(F)(F)F)c(N3CCN(c4ccccn4)CC3)c(F)cc2c1=O [Example 2, 1-cyclopropyl-6-fluoro-8-trifluoromethyl-1,4-dihydro-4-oxo-7-[4-(2-pyridyl)piperazin-1-yl]quinoline-3-carboxylic acid] | – | – | –
6 | – | CCn1cc(C(=O)O)c(=O)c2cc(F)c(N3CCNCC3)nc21 [Enoxacin] | no anti-HIV activity was also recognized | anti-HIV activities | –
7 | 0.0096 (≈ 0.0205 µM) | Cn1cc(C(=O)O)c(=O)c2cc(F)c(N3CCN(c4ccc(F)cc4)CC3)c(C(F)(F)F)c21 [Example 22, 6-fluoro-8-trifluoromethyl-1,4-dihydro-4-oxo-1-methyl-7-[4-(4-fluorophenyl)piperazin-1-yl]quinoline-3-carboxylic acid] | – | – | –
8 | 0.011 (≈ 0.0241 µM) | Cn1cc(C(=O)O)c(=O)c2cc(F)c(N3CCN(c4nccs4)CC3)c(C(F)(F)F)c21 [Example 23, 6-fluoro-8-trifluoromethyl-1,4-dihydro-4-oxo-1-methyl-7-[4-(2-thiazolyl)piperazin-1-yl]quinoline-3-carboxylic acid] | – | – | –
9 | 0.02 (≈ 0.0443 µM) | Cn1cc(C(=O)O)c(=O)c2cc(F)c(N3CCN(c4ncccn4)CC3)c(C(F)(F)F)c21 [Example 8, 6-fluoro-8-trifluoromethyl-1,4-dihydro-4-oxo-1-methyl-7-[4-(2-pyrimidinyl)piperazin-1-yl]quinoline-3-carboxylic acid] | – | – | –
10 | – | O=C(O)c1cn(C2CC2)c2cc(N3CCNCC3)c(F)cc2c1=O [Ciprofloxacin] | – | anti-HIV activities | no anti-HIV activity was also recognized
11 | – | C[C@H]1COc2c(N3CCN(C)CC3)c(F)cc3c(=O)c(C(=O)O)cn1c23 [DR-3355] | no anti-HIV activity was recognized | anti-HIV activity | –
12 | – | CCn1cc(C(=O)O)c(=O)c2cc(F)c(N3CCNC(C)C3)c(F)c21 (centres unmarked) [Lomefloxacin] | no anti-HIV activity was also recognized | anti-HIV activities | –
13 | – | CN1CCN(c2cc3c(cc2F)c(=O)c(C(=O)O)cn3-c2ccc(F)cc2)CC1 [Difloxacin] | no anti-HIV activity was also recognized | anti-HIV activities | –
